According to patent publication US20150080559A1, “Compositions Containing, Methods Involving, and Uses of Non-Natural Amino Acid Linked Dolastatin Derivatives” (priority 2011, published 2015):
Like-named read-outs stand apart in the source and are kept apart here.

Experiments:
MDA-MB-468 = assay: In vitro inhibition of proliferation assay (WST-8), MDA-MB-468; assay type: cell-based; conditions: Data Set II, experiment Oct. 8, 2010; 72 hr; read-out: IC50 Values after 72 hr drug treatment, MDA-MB-468
Procedure: (§1) At day 1, the cells were seeded. The media was aspirated and the T-225 culture flasks of cells was rinsed with 30 mL PBS −/. PBS was aspirated and 6 mL of 0.25% Trypsin-EDTA was added to each flask. The flasks were incubated at 37C, 5% CO2 for 2-5 minutes. Adherent cells were dislodged by hitting flask and trypsin was neutralized by adding 14 mL culture medium. The cell suspension was mixed and transferred to a 50 mL conical tube. The cells were spun down at 1200 rpm, 5 min, room temperature. The resultant cell pellet was resuspended in 12 mL of culture medium. The cells were counted in a hemacytometer. Cells were seeded at appropriate cell densities into 96-well flat-bottom, clear plates and incubated overnight at 37° C., 5% CO2 to allow cells to attach. Plating volume was 80 uL/well. 80 uL/well of culture medium was utilized as the “no cell” control.
(§2) Cell plating density examples include: • BT474 (high Her2)—20,000 cells/well in F12k/DMEM (50/50), 10% FBS, P/S • MDA-MB-468 (Her2 negative)—6,000 cells/well in F12k/DMEM (50/50), 10% FBS, P/S • HCC1954—5,000 cells/well in RPMI 1640, 10% FBS, P/S • SKOV-3—6,000 cells/well in RPMI 1640, 10% FBS, P/S • HT29—20,000 cells/well in McCoy's 5A, 10% FBS, P/S
(§3) At day 2, the test samples were added to the cells. […]
(§4) At day 5, proliferation readout occurred. […] The plates were measured for absorbance at OD 450 nm. […]

HT29 = assay: In vitro inhibition of proliferation assay (WST-8), HT29; assay type: cell-based; conditions: Data Set II, experiment Sep. 24, 2010; 72 hr; read-out: IC50 Values after 72 hr drug treatment, HT29
Procedure: as §1, §2, §3, §4

ZR-75-30 = assay: In vitro inhibition of proliferation assay (WST-8), ZR-75-30; assay type: cell-based; conditions: Data Set I, experiment Sep. 4, 2010; 72 hr; read-out: IC50 Values after 72 hr drug treatment, ZR-75-30
Procedure: as §1
(§5) At day 2, the test samples were added to the cells. The test samples were diluted in culture medium to a 9× stock concentration in Column 2 of a round-bottom 96-well plate. 3× serial dilutions were made from Column 2 to Column 11 with a multi-channel pipettor. 10 uL/well of the above samples was added in duplicate to the appropriate wells of the seeded plate. The total volume in the wells was about 90 uL/well. […]
as §4

HCC1954 = assay: In vitro inhibition of proliferation assay (WST-8), HCC1954; assay type: cell-based, human; conditions: 72 hr, read-out: IC50 Values after 72 hr drug treatment, HCC1954
Procedure: as §1, §2, §3, §4

SKOV-3 = assay: In vitro inhibition of proliferation assay (WST-8), SKOV-3; assay type: cell-based; conditions: 72 hr, read-out: IC50 Values after 72 hr drug treatment, SKOV-3
Procedure: as §1, §2
(§6) At day 2, the test samples were added to the cells. The test samples were diluted in culture medium to a 9× stock concentration in Column 2 of a round-bottom 96-well plate. 3× serial dilutions were made from Column 2 to Column 11 with a multi-channel pipettor. 10 uL/well of the above samples was added in duplicate to the appropriate wells of the seeded plate. The total volume in the wells was about 90 uL/well. 10 uL/well of culture medium was added to avoid edge effects for sample wells. Media Control wells were included in the inner wells where no sample was added (just 10 uL/well of culture medium) to be used in proliferation calculations. The plates were incubated at 37° C., 5% CO2 for 72 hrs.
as §4

BT474 = assay: In vitro inhibition of proliferation assay (WST-8), BT474; assay type: cell-based; conditions: 72 hr, read-out: IC50 Values after 72 hr drug treatment, BT474
Procedure: as §1, §2, §6, §4

NCI-N87 = assay: In vitro inhibition of proliferation assay (WST-8), NCI-N87; assay type: cell-based; conditions: Data Set I, experiment Sep. 4, 2010; 72 hr; read-out: IC50 Values after 72 hr drug treatment, NCI-N87
Procedure: as §1, §5, §4

LS513 = assay: In vitro inhibition of proliferation assay (WST-8), LS513; assay type: cell-based; conditions: Data Set I, experiment Sep. 4, 2010; 72 hr; read-out: IC50 Values after 72 hr drug treatment, LS513
Procedure: as §1, §5, §4

MDA-MB-175 = assay: In vitro inhibition of proliferation assay (WST-8), MDA-MB-175; assay type: cell-based; conditions: Data Set I, experiment Sep. 13, 2010
Procedure: as §1, §5, §4

[1] = Data Set I, experiment Sep. 4, 2010
[2] = Data Set II, experiment Oct. 8, 2010
[3] = Data Set I, experiment Sep. 13, 2010

Work on Dolastatin yielded an IC50 (MDA-MB-468) of less than 0.01 nM, an IC50 (HT29) of 4 nM and an IC50 (ZR-75-30) greater than 30 nM. For the same substance, the IC50 (HCC1954; [1]) was 0.06 nM, the IC50 (HCC1954; [2]) was 0.04 nM and the IC50 (SKOV-3; [1]) was 0.2 nM. The IC50 (SKOV-3; [3]) was 0.1 nM, the IC50 (SKOV-3; [2]) was 0.2 nM and the IC50 (BT474; [1]) was 0.1 nM. It also gave an IC50 (BT474; [3]) of 0.1 nM, an IC50 (BT474; Data Set II, experiment Sep. 24, 2010) of 2.5 nM and an IC50 (NCI-N87) greater than 30 nM. The IC50 (LS513) was 0.2 nM and the “IC50 Values after 72 hr drug treatment, MDA-MB-175” value (MDA-MB-175) was “no fit”.
